Measurements published in ChEMBL document CHEMBL1132968, “Substituent effects on the antibacterial activity of nitrogen-carbon-linked (azolylphenyl)oxazolidinones with expanded activity against the fastidious gram-negative organisms Haemophilus influenzae and Moraxella catarrhalis” (2000).
In brackets after ≈: the same amount, converted by molar mass.

How the values were obtained:
Assay type in all cases: functional
[1] = tested on: Enterococcus faecalis; test: Inhibitory activity against Enterococcus faecalis UC9217
[2] = tested on: Haemophilus influenzae; test: Inhibitory activity against Haemophilus influenzae UC30063
[3] = tested on: Moraxella catarrhalis; test: Inhibitory activity against Moraxella catarrhalis UC30610
[4] = tested on: Streptococcus pneumoniae; test: Inhibitory activity against Streptococcus pneumoniae UC9912
[5] = tested on: Staphylococcus epidermidis; test: Inhibitory activity against Methicillin-resistant Staphylococcus epidermidis UC12084
[6] = tested on: Staphylococcus aureus; test: Inhibitory activity against Methicillin-resistant Staphylococcus aureus UC6685
[7] = tested on: Staphylococcus aureus; test: Inhibitory activity against Methicillin-susceptible Staphylococcus aureus UC9213
[8] = tested on: Mus musculus; test: Dose required to cure 50% of Staphylococcus aureus infected mice when orally administered; value ranges from 4.3-13.3; settings: po
[9] = tested on: Mus musculus; test: Dose(orally administered) required to cure 50% of Staphylococcus aureus infected mice in the presence of eperezolid when orally administered; value ranges from 2.2-6.1; settings: po
[10] = tested on: Mus musculus; test: Dose required to cure 50% of Staphylococcus aureus infected mice when administered orally; settings: po
[11] = tested on: Mus musculus; test: Dose required to cure 50% of Staphylococcus aureus infected mice in the presence of eperezolid when administered orally; value ranges from 1.8-4.4; settings: po
[12] = tested on: Mus musculus; test: Dose required to cure 50% of Staphylococcus aureus infected mice in the presence of eperezolid when administered orally.; settings: po
[13] = tested on: Mus musculus; test: Dose required to cure 50% of Staphylococcus aureus infected mice when administered orally;; settings: po
[14] = tested on: Mus musculus; test: Dose required to cure 50% of Staphylococcus aureus infected mice in the presence of eperezolid when administered orally; value ranges from 4.0-26.7; settings: po
[15] = tested on: Mus musculus; test: Dose required to cure 50% of Staphylococcus aureus infected mice in the presence of vancomycin when administered orally; value ranges from 2.5-6.4; settings: po
[16] = tested on: Mus musculus; test: Dose required to cure 50% of Staphylococcus aureus infected mice when administered orally; value ranges from 2.9-8.5; settings: po
[17] = tested on: Mus musculus; test: Dose(orally administered) required to cure 50% of Staphylococcus aureus infected mice; settings: po
[18] = tested on: Mus musculus; test: Dose(orally administered) required to cure 50% of Staphylococcus aureus infected mice in the presence of eperezolid; settings: po
[19] = tested on: Mus musculus; test: Dose(orally administered) required to cure 50% of Staphylococcus aureus infected mice in the presence of eperezolid (95% confidence limits); settings: po
[20] = tested on: Mus musculus; test: Dose required to cure 50% of Staphylococcus aureus infected mice in the presence of eperezolid when administered orally;vlaue ranges from 1.9-6.6; settings: po
[21] = tested on: Mus musculus; test: Dose required to cure 50% of Staphylococcus aureus infected mice when administered orally administered; settings: po
[22] = tested on: Mus musculus; test: Dose(orally administered) required to cure 50% of Staphylococcus aureus infected mice in the presence of vancomycin; settings: po
[23] = tested on: Mus musculus; test: Dose required to cure 50% of Staphylococcus aureus infected mice in the presence of vancomycin when orally administered; settings: po
[24] = tested on: Mus musculus; test: Dose required to cure 50% of Staphylococcus aureus infected mice when orally administered; value ranges from 7.9-32.5; settings: po
[25] = tested on: Mus musculus; test: Dose(orally administered) required to cure 50% of Staphylococcus aureus infected mice in the presence of eperezolid when administered orally; value ranges from 0.8-2.3; settings: po
[26] = tested on: Mus musculus; test: Dose required to cure 50% of Staphylococcus aureus infected mice when administered orally.; settings: po

| SMILES | MIC [1] [µg/mL] | MIC [2] [µg/mL] | MIC [3] [µg/mL] | MIC [4] [µg/mL] | MIC [5] [µg/mL] | MIC [6] [µg/mL] | MIC [7] [µg/mL] | ED50 [17] [mg/kg/day] | also measured |
| --- | --- | --- | --- | --- | --- | --- | --- | --- | --- |
| CO/N=C\c1ccn(-c2ccc(N3C[C@H](CNC(C)=O)OC3=O)cc2F)c1 | 1 (≈ 2.67 µM) | 16 (≈ 42.7 µM) | 16 (≈ 42.7 µM) | 0.25 (≈ 0.668 µM) | 0.5 (≈ 1.34 µM) | 1 (≈ 2.67 µM) | 1 (≈ 2.67 µM) | – | ED50 [8]: 7.3 mg/kg/day; ED50 [9]: 3.5 mg/kg/day |
| COC(=O)c1ccn(-c2ccc(N3C[C@H](CNC(C)=O)OC3=O)cc2F)c1 | 1 (≈ 2.66 µM) | > 16 | 16 (≈ 42.6 µM) | 0.25 (≈ 0.666 µM) | 0.5 (≈ 1.33 µM) | 2 (≈ 5.33 µM) | 2 (≈ 5.33 µM) | – | ED50 [10]: > 20 mg/kg/day; ED50 [11]: 2.9 mg/kg/day |
| CC(=O)NC[C@H]1CN(c2ccc(-n3ccc(C(C)=O)c3)c(F)c2)C(=O)O1 | 1 (≈ 2.78 µM) | 16 (≈ 44.5 µM) | 4 (≈ 11.1 µM) | 0.25 (≈ 0.696 µM) | 0.5 (≈ 1.39 µM) | 1 (≈ 2.78 µM) | 2 (≈ 5.57 µM) | – | ED50 [10]: 6.5 mg/kg/day; ED50 [12]: 10 mg/kg/day |
| CC(=O)NC[C@H]1CN(c2ccc(-n3cnnn3)c(F)c2)C(=O)O1 | 2 (≈ 6.24 µM) | 16 (≈ 50 µM) | 16 (≈ 50 µM) | 1 (≈ 3.12 µM) | 2 (≈ 6.24 µM) | 2 (≈ 6.24 µM) | 4 (≈ 12.5 µM) | – | ED50 [13]: > 20 mg/kg/day; ED50 [14]: 7.8 mg/kg/day |
| CC(=O)NC[C@H]1CN(c2ccc(N3CCOCC3)c(F)c2)C(=O)O1 [LINEZOLID] | – | – | – | – | – | – | – | – | ED50 [15]: 3.9 mg/kg/day; ED50 [16]: 5.6 mg/kg/day |
| CC(=O)NC[C@H]1CN(c2ccc(-n3cc(C=O)nn3)c(F)c2)C(=O)O1 | 0.5 (≈ 1.44 µM) | 4 (≈ 11.5 µM) | 2 (≈ 5.76 µM) | 0.25 (≈ 0.72 µM) | < 0.125 | 0.25 (≈ 0.72 µM) | 0.5 (≈ 1.44 µM) | > 20 | ED50 [18]: 1.1 mg/kg/day |
| CCOC(=O)/C=C/c1ccn(-c2ccc(N3C[C@H](CNC(C)=O)OC3=O)cc2F)c1 | 2 (≈ 4.81 µM) | 32 (≈ 77 µM) | 4 (≈ 9.63 µM) | 0.5 (≈ 1.2 µM) | 2 (≈ 4.81 µM) | 4 (≈ 9.63 µM) | 4 (≈ 9.63 µM) | > 20 | ED50 [19]: 2.1 mg/kg/day |
| CO/N=C/c1cn(-c2ccc(N3C[C@H](CNC(C)=O)OC3=O)cc2F)nn1 | 4 (≈ 10.6 µM) | > 16 | 16 (≈ 42.5 µM) | 0.5 (≈ 1.33 µM) | 1 (≈ 2.66 µM) | 2 (≈ 5.31 µM) | 4 (≈ 10.6 µM) | – | ED50 [20]: 3.8 mg/kg/day; ED50 [21]: 8.6 mg/kg/day |
| CN[C@H](CC(C)C)C(=O)N[C@H]1C(=O)N[C@@H](CC(N)=O)C(=O)N[C@H]2C(=O)N[C@H]3C(=O)N[C@H](C(=O)N[C@H](C(=O)O)c4cc(O)cc(O)c4-c4cc3ccc4O)[C@H](O)c3ccc(c(Cl)c3)Oc3cc2cc(c3O[C@@H]2O[C@H](CO)[C@@H](O)[C@H](O)[C@H]2O[C@H]2C[C@](C)(N)[C@H](O)[C@H](C)O2)Oc2ccc(cc2Cl)[C@H]1O [VANCOMYCIN] | – | – | – | – | – | – | – | 3.9 | – |
| CC(=O)NC[C@H]1CN(c2ccc(-n3ccc(C=O)c3)c(F)c2)C(=O)O1 | – | – | – | < 0.06 | 0.125 (≈ 0.362 µM) | – | – | > 20 | ED50 [22]: 1.7 mg/kg/day |
| CC(=O)NC[C@H]1CN(c2ccc(-n3cccc3)c(F)c2)C(=O)O1 | 1 (≈ 3.15 µM) | 4 (≈ 12.6 µM) | 2 (≈ 6.3 µM) | ≤ 0.5 | ≤ 0.5 | 1 (≈ 3.15 µM) | 1 (≈ 3.15 µM) | – | ED50 [23]: 2.7 mg/kg/day; ED50 [24]: 13.2 mg/kg/day |
| CC(=O)NC[C@H]1CN(c2ccc(-n3cnc(Cl)n3)c(F)c2)C(=O)O1 | 2 (≈ 5.65 µM) | 16 (≈ 45.2 µM) | 2 (≈ 5.65 µM) | < 0.125 | 0.5 (≈ 1.41 µM) | 2 (≈ 5.65 µM) | 4 (≈ 11.3 µM) | 9.4 | ED50 [22]: 5 mg/kg/day |
| CC(=O)NC[C@H]1CN(c2ccc(-n3ccc(CCCNS(C)(=O)=O)c3)c(F)c2)C(=O)O1 | 2 (≈ 4.42 µM) | > 16 | 8 (≈ 17.7 µM) | 0.5 (≈ 1.1 µM) | 2 (≈ 4.42 µM) | 4 (≈ 8.84 µM) | 8 (≈ 17.7 µM) | – | ED50 [25]: 1.8 mg/kg/day; ED50 [26]: > 20 mg/kg/day |
